Reference: patent US20070128217A1 (priority 2003, published 2007)

Key:
[1] = test system: control sera (pooled serum of ten healthy LUMC hospital workers; commercial negative donor pooled serum from the Dutch bloodbank); format: binding, human; design: Binding of Control serum LUMC to linear peptides / Binding of Control serum Blood-bank to linear peptides / Binding of Control serum LUMC to looped peptides / Binding of Control Serum Blood-Bank to Looped peptides / Binding of Control serum LUMC to linear peptides of the protein M of SARS-CoV Urbani / Binding of Control serum Blood-bank to linear peptides of the protein M of SARS-CoV Urbani / Binding of Control serum LUMC to looped peptides of the protein M of SARS-CoV Urbani / Binding of Control Serum Blood-Bank to Looped peptides of the protein M of SARS-CoV Urbani: unit not given here
[2] = test system: rabbit serum obtained by immunizing a rabbit with the SARS-CoV strain Frankfurt 1; format: binding; design: Binding of a rabbit serum to linear peptides / Binding of a rabbit serum to looped peptides / Rabbit serum linear peptides / Rabbit serum looped peptides / Binding of a rabbit serum to linear peptides of protein N of SARS-CoV Urbani (Rabbit serum linear peptides) / Binding of a rabbit serum to looped/cyclic peptides of protein N of SARS-CoV Urbani (Rabbit serum looped peptides): unit not given here
[3] = test system: antibodies in sera from SARS patients (sera 1a, 1b, 2, 6, 37, 62, London, SARS-yellow, SARS-green); format: binding, human; design: Binding of serum 6 to linear peptides of protein X1 of SARS-CoV Urbani / Binding of serum 37 to linear peptides of protein X1 of SARS-CoV Urbani / Binding of serum 6 to looped/cyclic peptide (PEPSCAN-ELISA) / Binding of serum 37 to looped/cyclic peptide (PEPSCAN-ELISA) / Binding of serum 37 to looped/cyclic peptides of protein X1 of SARS-CoV Urbani / Binding of serum 6 to linear peptides of protein X2 / Binding of serum 37 to linear peptides of protein X2 / Binding of serum 37 to looped/cyclic peptides of protein X2 of SARS-CoV Urbani / Binding of serum 6 to linear peptides of protein M of SARS-CoV Urbani / Binding of serum 37 to linear peptides of protein M of SARS-CoV Urbani / Binding of serum 6 to looped/cyclic peptides of protein M of SARS-CoV Urbani / Binding of serum 37 to looped/cyclic peptides of protein M of SARS-CoV Urbani / Binding of serum 6 to linear peptides of protein X3 of SARS-CoV Urbani / Binding of serum 37 to linear peptides of protein X3 of SARS-CoV Urbani / Binding of serum 37 to looped/cyclic peptides of protein X3 of SARS-CoV Urbani / Binding of serum 6 to linear peptides of protein X4 of SARS-CoV Urbani / Binding of serum 37 to linear peptides of protein X4 of SARS-CoV Urbani / Binding of serum 37 to looped/cyclic peptides of protein X4 of SARS-CoV Urbani / Binding of serum 6 to linear peptides of protein X5 of SARS-CoV Urbani / Binding of serum 37 to linear peptides of protein X5 of SARS-CoV Urbani / Binding of serum 37 to looped/cyclic peptides of protein X5 of SARS-CoV Urbani / Binding of serum 6 to linear peptides of protein N of SARS-CoV Urbani / Binding of serum 37 to linear peptides of protein N of SARS-CoV Urbani / Binding of serum 6 to linear peptide (PEPSCAN-ELISA) / Binding of serum 1a to looped/cyclic peptides of protein N of SARS-CoV Urbani / Binding of serum 1b to looped/cyclic peptides of protein N of SARS-CoV Urbani / Binding of serum 2 to looped/cyclic peptides of protein N of SARS-CoV Urbani / Binding of serum 6 to looped/cyclic peptides of protein N of SARS-CoV Urbani / Binding of serum 37 to looped/cyclic peptides of protein N of SARS-CoV Urbani / Binding of serum 62 to looped/cyclic peptides of protein N of SARS-CoV Urbani / Binding of serum London to looped/cyclic peptides of protein N of SARS-CoV Urbani / Binding of serum SARS-green to looped/cyclic peptides of protein N of SARS-CoV Urbani: unit not given here

LDVIISSIVRQLFKP
Binding of Control Serum Blood-Bank to Looped peptides of the protein X3 of SARS-CoV Urbani [1]: 0.7 | Binding of Control serum Blood-bank to linear peptides of the protein X3 of SARS-CoV Urbani [1]: 0.6 | Binding of Control serum LUMC to linear peptides of the protein X3 of SARS-CoV Urbani [1]: 0.4 | Binding of Control serum LUMC to looped peptides of the protein X3 of SARS-CoV Urbani [1]: 0.8 | Rabbit serum linear peptides [2]: 0.2 | Rabbit serum looped peptides [2]: 0.0 | Binding of serum 1a to linear peptides of protein X3 of SARS-CoV Urbani [3]: 0.8 | Binding of serum 1a to looped/cyclic peptides of protein X3 of SARS-CoV Urbani [3]: 0.6 | Binding of serum 1b to linear peptides of protein X3 of SARS-CoV Urbani [3]: 0.3 | Binding of serum 1b to looped/cyclic peptides of protein X3 of SARS-CoV Urbani [3]: 0.3 | Binding of serum 2 to linear peptides of protein X3 of SARS-CoV Urbani [3]: 0.9 | Binding of serum 2 to looped/cyclic peptides of protein X3 of SARS-CoV Urbani [3]: 0.5 | Binding of serum 6 to linear peptides of protein X3 of SARS-CoV Urbani [3]: 0.3 | Binding of serum 6 to looped/cyclic peptides of protein X3 of SARS-CoV Urbani [3]: 0.4 | Binding of serum 37 to linear peptides of protein X3 of SARS-CoV Urbani [3]: 0.7 | Binding of serum 37 to looped/cyclic peptides of protein X3 of SARS-CoV Urbani [3]: 0.5 | Binding of serum 62 to linear peptides of protein X3 of SARS-CoV Urbani [3]: 0.6 | Binding of serum 62 to looped/cyclic peptides of protein X3 of SARS-CoV Urbani [3]: 0.5 | Binding of serum London to linear peptides of protein X3 of SARS-CoV Urbani [3]: 0.5 | Binding of serum London to looped/cyclic peptides of protein X3 of SARS-CoV Urbani [3]: 0.2 | Binding of serum SARS-green to linear peptides of protein X3 of SARS-CoV Urbani [3]: 0.4 | Binding of serum SARS-green to looped/cyclic peptides of protein X3 of SARS-CoV Urbani [3]: 0.2 | Binding of serum SARS-yellow to linear peptides of protein X3 of SARS-CoV Urbani [3]: 0.1 | Binding of serum SARS-yellow to looped/cyclic peptides of protein X3 of SARS-CoV Urbani [3]: 0.3

LEQWNLVIGFLFLAW
Binding of Control Serum Blood-Bank to Looped peptides of the protein M of SARS-CoV Urbani [1]: 0.6 | Binding of Control serum Blood-bank to linear peptides of the protein M of SARS-CoV Urbani [1]: 0.6 | Binding of Control serum LUMC to linear peptides of the protein M of SARS-CoV Urbani [1]: 0.3 | Binding of Control serum LUMC to looped peptides of the protein M of SARS-CoV Urbani [1]: 0.5 | Rabbit serum linear peptides [2]: 0.2 | Rabbit serum looped peptides [2]: 0.4 | Binding of serum 1a to linear peptides of protein M of SARS-CoV Urbani [3]: 0.6 | Binding of serum 1a to looped/cyclic peptides of protein M of SARS-CoV Urbani [3]: 0.6 | Binding of serum 1b to linear peptides of protein M of SARS-CoV Urbani [3]: 0.4 | Binding of serum 1b to looped/cyclic peptides of protein M of SARS-CoV Urbani [3]: 0.3 | Binding of serum 2 to linear peptides of protein M of SARS-CoV Urbani [3]: 0.6 | Binding of serum 2 to looped/cyclic peptides of protein M of SARS-CoV Urbani [3]: 0.7 | Binding of serum 6 to linear peptides of protein M of SARS-CoV Urbani [3]: 0.5 | Binding of serum 6 to looped/cyclic peptides of protein M of SARS-CoV Urbani [3]: 0.5 | Binding of serum 37 to linear peptides of protein M of SARS-CoV Urbani [3]: 0.6 | Binding of serum 37 to looped/cyclic peptides of protein M of SARS-CoV Urbani [3]: 0.7 | Binding of serum 62 to linear peptides of protein M of SARS-CoV Urbani [3]: 0.7 | Binding of serum 62 to looped/cyclic peptides of protein M of SARS-CoV Urbani [3]: 0.6 | Binding of serum London to linear peptides of protein M of SARS-CoV Urbani [3]: 0.4 | Binding of serum London to looped/cyclic peptides of protein M of SARS-CoV Urbani [3]: 0.2 | Binding of serum SARS-green to linear peptides of protein M of SARS-CoV Urbani [3]: 0.3 | Binding of serum SARS-green to looped/cyclic peptides of protein M of SARS-CoV Urbani [3]: 0.3 | Binding of serum SARS-yellow to linear peptides of protein M of SARS-CoV Urbani [3]: 0.1 | Binding of serum SARS-yellow to looped/cyclic peptides of protein M of SARS-CoV Urbani [3]: 0.6

LESTQITTDTGIENA
Binding of Control Serum Blood-Bank to Looped peptides [1]: 0.4 | Binding of Control serum Blood-bank to linear peptides [1]: 0.3 | Binding of Control serum LUMC to linear peptides [1]: 0.4 | Binding of Control serum LUMC to looped peptides [1]: 0.4 | Binding of a rabbit serum to linear peptides [2]: 0.1 | Binding of a rabbit serum to looped peptides [2]: 0.5 | Binding of serum 1a to linear peptides of protein X1 of SARS-CoV Urbani [3]: 0.6 | Binding of serum 1a to looped/cyclic peptides of protein X1 of SARS-CoV Urbani [3]: 0.4 | Binding of serum 1b to linear peptides of protein X1 of SARS-CoV Urbani [3]: 0.5 | Binding of serum 1b to looped/cyclic peptides of protein X1 of SARS-CoV Urbani [3]: 0.3 | Binding of serum 2 to linear peptides of protein X1 of SARS-CoV Urbani [3]: 0.4 | Binding of serum 2 to looped/cyclic peptides of protein X1 of SARS-CoV Urbani [3]: 0.2 | Binding of serum 6 to linear peptides of protein X1 of SARS-CoV Urbani [3]: 0.4 | Binding of serum 6 to looped/cyclic peptides of protein X1 of SARS-CoV Urbani [3]: 0.2 | Binding of serum 37 to linear peptides of protein X1 of SARS-CoV Urbani [3]: 0.5 | Binding of serum 37 to looped/cyclic peptides of protein X1 of SARS-CoV Urbani [3]: 0.3 | Binding of serum 62 to linear peptides of protein X1 of SARS-CoV Urbani [3]: 0.4 | Binding of serum 62 to looped/cyclic peptides of protein X1 of SARS-CoV Urbani [3]: 0.4 | Binding of serum London to linear peptides of protein X1 of SARS-CoV Urbani [3]: 0.2 | Binding of serum London to looped/cyclic peptides of protein X1 of SARS-CoV Urbani [3]: 0.2 | Binding of serum SARS-green to linear peptides of protein X1 of SARS-CoV Urbani [3]: 0.1 | Binding of serum SARS-green to looped/cyclic peptides of protein X1 of SARS-CoV Urbani [3]: 0.2 | Binding of serum SARS-yellow to linear peptides of protein X1 of SARS-CoV Urbani [3]: 0.2 | Binding of serum SARS-yellow to looped/cyclic peptides of protein X1 of SARS-CoV Urbani [3]: 0.3

LFARTRSMWSFNPET
Binding of Control Serum Blood-Bank to Looped peptides of the protein M of SARS-CoV Urbani [1]: 0.6 | Binding of Control serum Blood-bank to linear peptides of the protein M of SARS-CoV Urbani [1]: 0.7 | Binding of Control serum LUMC to linear peptides of the protein M of SARS-CoV Urbani [1]: 0.8 | Binding of Control serum LUMC to looped peptides of the protein M of SARS-CoV Urbani [1]: 0.6 | Rabbit serum linear peptides [2]: 0.1 | Rabbit serum looped peptides [2]: 0.3 | Binding of serum 1a to linear peptides of protein M of SARS-CoV Urbani [3]: 0.8 | Binding of serum 1a to looped/cyclic peptides of protein M of SARS-CoV Urbani [3]: 0.7 | Binding of serum 1b to linear peptides of protein M of SARS-CoV Urbani [3]: 0.7 | Binding of serum 1b to looped/cyclic peptides of protein M of SARS-CoV Urbani [3]: 0.5 | Binding of serum 2 to linear peptides of protein M of SARS-CoV Urbani [3]: 0.5 | Binding of serum 2 to looped/cyclic peptides of protein M of SARS-CoV Urbani [3]: 0.6 | Binding of serum 6 to linear peptides of protein M of SARS-CoV Urbani [3]: 0.6 | Binding of serum 6 to looped/cyclic peptides of protein M of SARS-CoV Urbani [3]: 0.5 | Binding of serum 37 to linear peptides of protein M of SARS-CoV Urbani [3]: 0.5 | Binding of serum 37 to looped/cyclic peptides of protein M of SARS-CoV Urbani [3]: 0.7 | Binding of serum 62 to linear peptides of protein M of SARS-CoV Urbani [3]: 0.5 | Binding of serum 62 to looped/cyclic peptides of protein M of SARS-CoV Urbani [3]: 0.6 | Binding of serum London to linear peptides of protein M of SARS-CoV Urbani [3]: 0.4 | Binding of serum London to looped/cyclic peptides of protein M of SARS-CoV Urbani [3]: 0.2 | Binding of serum SARS-green to linear peptides of protein M of SARS-CoV Urbani [3]: 0.5 | Binding of serum SARS-green to looped/cyclic peptides of protein M of SARS-CoV Urbani [3]: 0.3 | Binding of serum SARS-yellow to linear peptides of protein M of SARS-CoV Urbani [3]: 0.2 | Binding of serum SARS-yellow to looped/cyclic peptides of protein M of SARS-CoV Urbani [3]: 0.7
